PubChem BioAssay (NCI)
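Cells were grown in 96-well plates and exposed to each compound for 48 hours at five concentrations; endpoints were interpolated linearly between bracketing concentrations, or set to the highest concentration if not reached. The concentration for 50% growth inhibition is given as GI50. The concentration for full growth arrest is given as TGI.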

Assays:
Assay in all cases: NCI anticancer screen, dose series, 48 h
SK-OV-3 ovarian = tested on: SK-OV-3 ovarian
COLO 205 colon = tested on: COLO 205 colon
OVCAR-3 ovarian = tested on: OVCAR-3 ovarian
IGROV1 ovarian = tested on: IGROV1 ovarian
CCRF-CEM leukemia = tested on: CCRF-CEM leukemia
NCI-H460 lung = tested on: NCI-H460 lung
HL-60(TB) leukemia = tested on: HL-60(TB) leukemia
SK-MEL-28 melanoma = tested on: SK-MEL-28 melanoma

Row | Compound | GI50 (SK-OV-3 ovarian) | TGI (SK-OV-3 ovarian) | GI50 (COLO 205 colon) | TGI (COLO 205 colon) | GI50 (OVCAR-3 ovarian) | TGI (OVCAR-3 ovarian) | GI50 (IGROV1 ovarian) | TGI (IGROV1 ovarian) | GI50 (CCRF-CEM leukemia) | TGI (CCRF-CEM leukemia) | GI50 (NCI-H460 lung) | TGI (NCI-H460 lung) | GI50 (HL-60(TB) leukemia) | TGI (HL-60(TB) leukemia) | GI50 (SK-MEL-28 melanoma) | TGI (SK-MEL-28 melanoma)
1 | COc1ccc(-c2nc(-c3nc4ccc(Cl)cc4[nH]3)c3ccccn23)cc1 | 2.24 µM | 4.99 µM | 3.61 µM | 13.3 µM | 2.61 µM | 6.69 µM | 4.95 µM | 22.9 µM | 27.3 µM | > 100 µM | 2.23 µM | 5.29 µM | 49.8 µM | > 100 µM | 2.14 µM | 5.34 µM
2 | CCN(CC)C(c1ccc(N(C)C)cc1)C(c1ccc(N(C)C)cc1)N(CC)CC (stereo unspecified) | – | > 73 µM | – | > 73 µM | – | > 73 µM | – | > 73 µM | – | > 73 µM | – | > 73 µM | – | 38.3 µM | – | > 73 µM
3 | CCOC(=O)/C(C#N)=C/c1[nH]c(C(=O)OCc2ccccc2)c(C)c1C | – | > 100 µM | – | > 100 µM | – | > 100 µM | – | > 100 µM | – | > 100 µM | – | > 100 µM | – | > 100 µM | – | > 100 µM
4 | CC1(C)OC2=C(CC1Br)C(=O)C(=O)c1ccccc12 (stereo unspecified) | 1.96 µM | 3.47 µM | 1.89 µM | 3.39 µM | 1.6 µM | 2.98 µM | 2.18 µM | 4.12 µM | 3.56 µM | > 100 µM | 2.08 µM | 3.96 µM | 1.8 µM | 4.57 µM | 1.82 µM | 3.24 µM
5 | O=C(O)C(=Cc1ccc(-c2ccccc2)cc1)C(=O)O | – | 41.2 µM | – | 25.1 µM | – | 17.5 µM | – | > 100 µM | – | > 100 µM | – | 35.7 µM | – | 26.6 µM | – | 48.3 µM
